Experiments:
[1] = system: β1i/LMP2, β5i/LMP7 and β2i/PSMB10 in SK-N-MC^A*02:01 and other EwS cell lines; experiment: Western blot of immunoproteasome subunits in EwS cell lines; assay type: cell-based, human; settings: IFN-γ 100U/ml, 24 h
[2] = system: MHC class I on EwS cell lines; experiment: flow cytometry of MHC class I on EwS cell lines; assay type: cell-based, human; settings: IFN-γ 100U/ml, 24 h; W6/32 and BB7.2 mAbs

In the case of “IFN-γ: inflammatory cytokine used to treat EwS cell lines and tumors”, the immunoproteasome subunit expression [1] is reported as “induced de novo expression of immunoproteasome subunits” and the “MHC class I expression” value [2] is reported as “induced MHC class I upregulation”.
